Results from ChEMBL document CHEMBL1133530, “Classification of multidrug-resistance reversal agents using structure-based descriptors and linear discriminant analysis” (2000).

Species on record: Mus musculus
Test: Tested for the multidrug resistance reversal activity against P388 murine leukemia cell line, activity is expressed as RF(ED50 with no adriamycin (ADR)/ED50 with 200 nM ADR)
Type: functional

SMILES	RF
CCN(CC)CCOC1CCC2(C)C(=CCC3C4CCC(=O)C4(C)CCC32)C1 (stereo not drawn)	60
COc1ccc(CCC2NCCc3cc(OC)c(OC)cc32)cc1 (stereo not drawn)	100
O=C(OCCN1CCN(CCOC(=O)C(c2ccccc2)c2ccccc2)CC1)C(c1ccccc1)c1ccccc1	300
CCCCc1oc2ccccc2c1C(=O)c1cc(I)c(OCCN(CC)CC)c(I)c1 [AMIODARONE]	5.6
COc1ccc(CCNCC(O)COc2cccc(C)c2)cc1OC (stereo not drawn) [BEVANTOLOL]	50
NCCc1ccccc1 [PHENETHYLAMINE]	1
COc1ccc(CCN(C)CCCC(C#N)(c2ccc(OC)c(OC)c2)C(C)C)cc1OC (stereo not drawn) [VERAPAMIL]	100
OCCN1CCN(CC/C=C2/c3ccccc3Sc3ccc(Cl)cc32)CC1 [ZUCLOPENTHIXOL]	15
